Data from PubChem BioAssay AID256 (DTP/NCI, 2004).
“And” between values parts separate entries of the source, which are not always exact repeats. Equal entries are not always repeated. Toxic doses and inconclusive results are not listed.

System: CD2F1 mice, L1210 leukemia ip, survival T/C
Assay: NCI In Vivo Anticancer Drug Screen. Data for tumor model L1210 Leukemia (intraperitoneal) in CD2F1 (CDF1) mice
Conditions: higher = longer survival
Outline: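 Implant tumor; dose compound or vehicle; measure endpoint in both groups; report treated divided by control.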

[1] = endpoint: mean survival time, dose: 25.0 mg/kg/injection, schedule: Q04DX003 (ip), vehicle: saline with Tween-80
[2] = endpoint: mean survival time, dose: 50.0 mg/kg/injection, schedule: Q04DX003 (ip), vehicle: saline with Tween-80
[3] = endpoint: mean survival time, dose: 100.0 mg/kg/injection, schedule: Q04DX003 (ip), vehicle: saline with Tween-80
[4] = endpoint: mean survival time, dose: 200.0 mg/kg/injection, schedule: Q04DX003 (ip), vehicle: saline with Tween-80
[5] = endpoint: mean survival time, dose: 400.0 mg/kg/injection, schedule: Q04DX003 (ip), vehicle: saline with Tween-80
[6] = endpoint: mean survival time, dose: 100.0 mg/kg/injection, schedule: Q04DX003 (ip), vehicle: saline
[7] = endpoint: mean survival time, dose: 200.0 mg/kg/injection, schedule: Q04DX003 (ip), vehicle: saline
[8] = endpoint: mean survival time, dose: 400.0 mg/kg/injection, schedule: Q04DX003 (ip), vehicle: saline
[9] = endpoint: mean survival time, dose: 100.0 mg/kg/injection, schedule: Q01DX009 (ip), vehicle: saline
[10] = endpoint: mean survival time, dose: 200.0 mg/kg/injection, schedule: Q01DX009 (ip), vehicle: saline
[11] = endpoint: mean survival time, dose: 400.0 mg/kg/injection, schedule: Q01DX009 (ip), vehicle: saline
[12] = endpoint: mean survival time, dose: 100.0 mg/kg/injection, schedule: Q01DX009 (ip), vehicle: saline with Tween-80
[13] = endpoint: mean survival time, dose: 200.0 mg/kg/injection, schedule: Q01DX009 (ip), vehicle: saline with Tween-80
[14] = endpoint: mean survival time, dose: 200.0 mg/kg/injection, schedule: Q01DX001 (ip), vehicle: saline
[15] = endpoint: mean survival time, dose: 75.0 mg/kg/injection, schedule: Q01DX001 (ip), vehicle: other
[16] = endpoint: mean survival time, dose: 150.0 mg/kg/injection, schedule: Q01DX001 (ip), vehicle: other
[17] = endpoint: mean survival time, dose: 300.0 mg/kg/injection, schedule: Q01DX001 (ip), vehicle: other

## Nc1ccc(CNC(=O)Nc2ccc(S(=O)(=O)F)cc2)cc1
[1]
  T/C: 95 % of control
[2]
  T/C: 91 % of control
[3]
  T/C: 110 % of control
[4]
  T/C: 92 % of control
[5]
  T/C: 92 % of control

## NCCNCC(=O)O
[6]
  T/C: 97 % of control
[7]
  T/C: 93 % of control
[8]
  T/C: 97 % of control

## Cc1ncc(CO)c(CO)c1O
[9]
  T/C: 100 % of control
[10]
  T/C: 94 % of control
[11]
  T/C: 95 % of control

## CC(C)(C)NO
endpoint: mean survival time, dose: 100.0 mg/kg/injection, schedule: Q01DX001 (ip), vehicle: Klucel (hydroxypropylcellulose) (HPC)
  T/C: 100 % of control
endpoint: mean survival time, dose: 200.0 mg/kg/injection, schedule: Q01DX001 (ip), vehicle: Klucel (hydroxypropylcellulose) (HPC)
  T/C: 96 % of control
endpoint: mean survival time, dose: 400.0 mg/kg/injection, schedule: Q01DX001 (ip), vehicle: Klucel (hydroxypropylcellulose) (HPC)
  T/C: 100 % of control

## CCOC(=O)C(C)(C)Oc1nn(Cc2ccccc2)c2ccccc12
[1]
  T/C: 104 % of control
[2]
  T/C: 102 % of control
[3]
  T/C: 102 % of control

## NC(CN1CCCCC1)C(=O)O (configuration not stated)
endpoint: mean survival time, dose: 100.0 mg/kg/injection, schedule: Q04DX002 (ip), vehicle: saline with Tween-80
  T/C: 98 % of control
endpoint: mean survival time, dose: 200.0 mg/kg/injection, schedule: Q04DX002 (ip), vehicle: saline with Tween-80
  T/C: 90 % of control
endpoint: mean survival time, dose: 400.0 mg/kg/injection, schedule: Q04DX002 (ip), vehicle: saline with Tween-80
  T/C: 94 % of control

## COc1ccc(C(C)=O)cc1[N+](=O)[O-]
[12]
  T/C: 98 % of control
[3]
  T/C: 96 % of control
[13]
  T/C: 97 % of control
[4]
  T/C: 102 % of control
[5]
  T/C: 94 % of control

## CSc1ccccc1C(C)(C)C(=O)O
[3]
  T/C: 105 % of control
[4]
  T/C: 105 % of control
[5]
  T/C: 96 % of control

## Clc1ccc2c(Cl)c3c(nc2c1)CCCC3
endpoint: mean survival time, dose: 100.0 mg/kg/injection, schedule: Q01DX001 (ip), vehicle: saline
  T/C: 100 % of control
[14]
  T/C: 100 % of control

## O=[N+]([O-])c1ccc(CNc2ncnc3c2ncn3C2OC(CO)C(O)C2O)cc1 (configuration not stated)
[15]
  T/C: 106 % of control
[16]
  T/C: 112 % of control
[17]
  T/C: 100 % of control

## Cc1ccccc1C(C)C
[3]
  T/C: 101 % of control
[4]
  T/C: 97 % of control
[5]
  T/C: 101 % of control

## Nc1ncnc2c1c1c(=O)[nH]c(=O)[nH]c1n2C1OC(CO)C(O)C1O (configuration not stated)
endpoint: mean survival time, dose: 12.5 mg/kg/injection, schedule: Q01DX005 (ip), vehicle: distilled water + Tween-80
  T/C: 111 % of control
endpoint: mean survival time, dose: 25.0 mg/kg/injection, schedule: Q01DX005 (ip), vehicle: distilled water + Tween-80
  T/C: 116 % of control
endpoint: mean survival time, dose: 50.0 mg/kg/injection, schedule: Q01DX005 (ip), vehicle: distilled water + Tween-80
  T/C: 119 % of control
endpoint: mean survival time, dose: 100.0 mg/kg/injection, schedule: Q01DX005 (ip), vehicle: distilled water + Tween-80
  T/C: 158 % of control
endpoint: mean survival time, dose: 200.0 mg/kg/injection, schedule: Q01DX005 (ip), vehicle: distilled water + Tween-80
  T/C: 172 % of control
endpoint: mean survival time, dose: 400.0 mg/kg/injection, schedule: Q01DX005 (ip), vehicle: distilled water + Tween-80
  T/C: 208 % of control
endpoint: median survival time, dose: 25.0 mg/kg/injection, schedule: Q01DX009 (ip), vehicle: distilled water + Tween-80
  T/C: 114 % of control
endpoint: median survival time, dose: 50.0 mg/kg/injection, schedule: Q01DX009 (ip), vehicle: distilled water + Tween-80
  T/C: 115 % of control and 109 % of control
endpoint: median survival time, dose: 100.0 mg/kg/injection, schedule: Q01DX009 (ip), vehicle: distilled water + Tween-80
  T/C: 121 % of control and 110 % of control
endpoint: median survival time, dose: 400.0 mg/kg/injection, schedule: Q01DX009 (ip), vehicle: distilled water + Tween-80
  T/C: 105 % of control

## COC(=O)NC(=O)c1cn[nH]n1
endpoint: mean survival time, dose: 12.5 mg/kg/injection, schedule: Q01DX009 (ip), vehicle: other
  T/C: 98 % of control
endpoint: mean survival time, dose: 25.0 mg/kg/injection, schedule: Q01DX009 (ip), vehicle: other
  T/C: 103 % of control
endpoint: mean survival time, dose: 50.0 mg/kg/injection, schedule: Q01DX009 (ip), vehicle: other
  T/C: 97 % of control
endpoint: mean survival time, dose: 100.0 mg/kg/injection, schedule: Q01DX009 (ip), vehicle: other
  T/C: 101 % of control
endpoint: mean survival time, dose: 200.0 mg/kg/injection, schedule: Q01DX009 (ip), vehicle: other
  T/C: 95 % of control

## CCOC(=O)c1ccc(N(CCO)CCO)cc1
[15]
  T/C: 94 % of control
[16]
  T/C: 97 % of control
[17]
  T/C: 102 % of control

## NC1=NCNC(=O)N1
endpoint: mean survival time, dose: 6.25 mg/kg/injection, schedule: Q04DX003 (ip), vehicle: saline
  T/C: 102 % of control
endpoint: mean survival time, dose: 12.5 mg/kg/injection, schedule: Q04DX003 (ip), vehicle: saline
  T/C: 91 % of control
endpoint: mean survival time, dose: 25.0 mg/kg/injection, schedule: Q04DX003 (ip), vehicle: saline
  T/C: 93 % of control
endpoint: mean survival time, dose: 50.0 mg/kg/injection, schedule: Q04DX003 (ip), vehicle: saline
  T/C: 98 % of control
[6]
  T/C: 96 % of control
[7]
  T/C: 96 % of control
[8]
  T/C: 98 % of control

## O=C1C=CC(=O)O1 (tested in a mixture with another compound)
endpoint: mean survival time, dose: 1.56 mg/kg/injection, schedule: Q01DX001 (ip), vehicle: other
  T/C: 109 % of control
endpoint: mean survival time, dose: 1.56 mg/kg/injection, schedule: Q04DX003 (ip), vehicle: other
  T/C: 95 % of control
endpoint: mean survival time, dose: 3.12 mg/kg/injection, schedule: Q01DX001 (ip), vehicle: other
  T/C: 105 % of control
endpoint: mean survival time, dose: 3.12 mg/kg/injection, schedule: Q04DX003 (ip), vehicle: other
  T/C: 97 % of control
endpoint: mean survival time, dose: 6.25 mg/kg/injection, schedule: Q04DX003 (ip), vehicle: other
  T/C: 97 % of control
endpoint: mean survival time, dose: 50.0 mg/kg/injection, schedule: Q01DX001 (ip), vehicle: saline
  T/C: 115 % of control
[14]
  T/C: 117 % of control
endpoint: mean survival time, dose: 400.0 mg/kg/injection, schedule: Q01DX001 (ip), vehicle: saline
  T/C: 117 % of control
endpoint: mean survival time, dose: 1000.0 mg/kg/injection, schedule: Q01DX001 (ip), vehicle: saline
  T/C: 121 % of control

## CCOC(=O)c1cnc(N(C)C)nc1SC(=N)N
endpoint: mean survival time, dose: 50.0 mg/kg/injection, schedule: Q01DX009 (ip), vehicle: saline
  T/C: 102 % of control
[9]
  T/C: 118 % of control
[6]
  T/C: 106 % of control
[7]
  T/C: 91 % of control

## C/C=C\c1ccc(OCCOC(=O)Nc2ccc(C)cc2C)c(OC)c1
endpoint: mean survival time, dose: 50.0 mg/kg/injection, schedule: Q01DX009 (ip), vehicle: saline with Tween-80
  T/C: 104 % of control
[12]
  T/C: 96 % of control
[13]
  T/C: 93 % of control

## Cc1ccc(S(=O)(=O)OCCOCCOCCOS(=O)(=O)c2ccc(C)cc2)cc1
[3]
  T/C: 101 % of control
[4]
  T/C: 101 % of control
[5]
  T/C: 101 % of control

## O
endpoint: mean survival time, dose: 75.0 mg/kg/injection, schedule: Q01DX001 (ip), vehicle: saline
  T/C: 96 % of control
[9]
  T/C: 88 % of control
[10]
  T/C: 100 % of control
[11]
  T/C: 96 % of control

## O=C1NC(c2ccccc2)C2/C=C\CCCCC12 (configuration not stated)
endpoint: mean survival time, dose: 75.0 mg/kg/injection, schedule: Q04DX002 (ip), vehicle: saline with Tween-80
  T/C: 93 % of control
endpoint: mean survival time, dose: 150.0 mg/kg/injection, schedule: Q04DX002 (ip), vehicle: saline with Tween-80
  T/C: 96 % of control
endpoint: mean survival time, dose: 300.0 mg/kg/injection, schedule: Q04DX002 (ip), vehicle: saline with Tween-80
  T/C: 93 % of control

## O=C(O)c1ccc(SSc2ccc(C(=O)O)cn2)nc1
[9]
  T/C: 102 % of control
[10]
  T/C: 96 % of control
[11]
  T/C: 94 % of control

## CCCCCCCC1C(=O)OC2CC3C(C)=CC(=O)C(O)C3(C)C3C4(O)OCC23C1C(C)C4O (configuration not stated)
endpoint: median survival time, dose: 2.5 mg/kg/injection, schedule: Q01DX005 (ip), vehicle: Klucel (hydroxypropylcellulose) (HPC)
  T/C: 109 % of control
endpoint: median survival time, dose: 5.0 mg/kg/injection, schedule: Q01DX005 (ip), vehicle: Klucel (hydroxypropylcellulose) (HPC)
  T/C: 106 % of control
endpoint: median survival time, dose: 10.0 mg/kg/injection, schedule: Q01DX005 (ip), vehicle: Klucel (hydroxypropylcellulose) (HPC)
  T/C: 102 % of control
endpoint: median survival time, dose: 20.0 mg/kg/injection, schedule: Q01DX005 (ip), vehicle: Klucel (hydroxypropylcellulose) (HPC)
  T/C: 108 % of control

## COc1ccc2ccccc2c1C(=O)CCCc1ccccc1
endpoint: mean survival time, dose: 12.5 mg/kg/injection, schedule: Q01DX009 (ip), vehicle: water
  T/C: 97 % of control
endpoint: mean survival time, dose: 25.0 mg/kg/injection, schedule: Q01DX009 (ip), vehicle: water
  T/C: 96 % of control
endpoint: mean survival time, dose: 50.0 mg/kg/injection, schedule: Q01DX009 (ip), vehicle: water
  T/C: 97 % of control
endpoint: mean survival time, dose: 100.0 mg/kg/injection, schedule: Q01DX009 (ip), vehicle: water
  T/C: 96 % of control
endpoint: mean survival time, dose: 200.0 mg/kg/injection, schedule: Q01DX009 (ip), vehicle: water
  T/C: 96 % of control

## Cc1cc([N+](=O)[O-])cc(C)c1O
[3]
  T/C: 100 % of control
[4]
  T/C: 96 % of control
[5]
  T/C: 100 % of control
